The record followed here is patent EP2951180B1, “2,6,7,8 SUBSTITUTED PURINES AS HDM2 INHIBITORS” (Merck Sharp & Dohme Corp., priority 2013, dated 2014).

One may read the IC50 as the midpoint of a concentration-inhibition curve.

The target of the assay is T1, HDM2 (Homo sapiens, UniProt Q00987).
T1 construct: Thioredoxin (N); made in house; host or cells: E. coli strain BL21(DE3)Rosetta
T1 sequence (Q00987 17-125): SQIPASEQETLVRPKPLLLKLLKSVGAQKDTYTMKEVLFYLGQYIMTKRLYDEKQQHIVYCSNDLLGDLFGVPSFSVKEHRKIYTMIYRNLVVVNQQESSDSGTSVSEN
Nature of the assay: HDM2 FRET assay (inhibition of binding of FITC labeled p53-pocket peptide to HDM2). To be noted: Table 11; read-out: FRET IC50. The essentials: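 Signal is read as the 520/495 nm emission ratio and converted to percent inhibition; nonlinear sigmoidal regression yields IC50. The assay mixes HDM2 (0.5 nM), FITC-p53 peptide (3 nM) and Tb anti-His antibody (0.25 nM) at 0.1% DMSO.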
On to `C[C@@H](Nc1nc(-c2noc(=O)[nH]2)nc2nc(N3CCOC[C@H]3c3ccccc3)n(C[C@H]3CC[C@H](C)CC3)c12)C(F)(F)F` [Example 11.53, 3-(7-[(trans-4-methylcyclohexyl)methyl]-8-[(3R)-3-phenylmorpholin-4-yl]-6-{[(1R)-2,2,2-trifluoro-1-methylethyl]amino}-7H-purin-2-yl)-1,2,4-oxadiazol-5(4H)-one], for which the IC50 worked out at 4.68 nM.
With `CC(C)C1CCCCN1c1nc2nc(C(=O)O)nc(N[C@H](C)C3CCC3)c2n1C[C@H]1CC[C@H](C)CC1` (stereo partly drawn) [Example 11.54, 6-{[(1R)-1-cyclobutylethyl]amino}-7-[(trans-4-methylcyclohexyl)methyl]-8-[2-(1-methylethyl)piperidin-1-yl] -7H-purine-2-carboxylic acid] the figure was 3.31 nM; with `C[C@@H](Nc1nc(-c2n[nH]c(=O)o2)nc2nc(N3CCOC[C@H]3c3ccccc3)n(C[C@H]3CC[C@H](C)CC3)c12)C1CCC1` [Example 11.55, 5-(6-{[(1R)-1-cyclobutylethyl]amino}-7-[(trans-4-methylcyclohexyl)methyl]-8-[(3R)-3-phenylmorpholin-4-yl]-7H-purin-2-yl)-1,3,4-oxadiazol-2(3H)-one], 2.14 nM; with `C[C@@H](Nc1nc(C(=O)O)nc2nc(N3CCCCC3Cc3ccc(F)cc3)n(C[C@H]3CC[C@H](C)CC3)c12)C1CCC1` (stereo partly drawn) [Example 11.56, 6-{[(1R)-1-cyclobutylethyl]amino}-8-[2-(4-fluorobenzyl)piperidin-1-yl]-7-[(trans-4-methylcyclohexyl)methyl]-7H-purine-2-carboxylic acid], 11.6 nM.
Consider `C[C@@H](Nc1nc(-c2noc(=O)[nH]2)nc2nc(-n3ccnc3)n(C[C@H]3CC[C@H](C)CC3)c12)C1CCC1` [Example 11.57, 3-(6-{[(1R)-1-cyclobutylethyl]amino}-8-(1H-imidazol-1-yl)-7-[(trans-4-methylcyclohexyl)methyl]-7H-purin-2-yl)-1,2,4-oxadiazol-5(4H)-one], for which the IC50 worked out at 16.4 nM.
With `C[C@@H](Nc1nc(-c2noc(=O)[nH]2)nc2nc(N3CCC[C@H]4CCCC[C@@H]43)n(C[C@H]3CC[C@H](C)CC3)c12)C1CCC1` [Example 11.60, 3-(6-{[(1R)-1-cyclobutylethyl]amino}-7-[(trans-4-methylcyclohexyl)methyl]-8-[(4aR,8aS)-octahydroquinolin-1(2H)-yl]-7H-purin-2-yl)-1,2,4-oxadiazol-5(4H)-one] the figure was 10.5 nM.
`C[C@@H](Nc1nc(-c2noc(=O)[nH]2)nc2nc(N3CCC[C@@H]4CCCC[C@H]43)n(C[C@H]3CC[C@H](C)CC3)c12)C1CCC1` [Example 11.61, 3-(6-{[(1R)-1-cyclobutylethyl]amino}-7-[(trans-4-methylcyclohexyl)methyl]-8-[(4aS,8aR)-octahydroquinolin-1(2H)-yl]-7H-purin-2-yl)-1,2,4-oxadiazol-5(4H)-one]: the IC50 was 5.13 nM.
For `C[C@H]1CC[C@H](Cn2c(N3CCOC[C@H]3c3ccccc3)nc3nc(-c4noc(=O)[nH]4)nc(N4CCCC4C4CCC4)c32)CC1` (stereo partly drawn) [Example 11.62, 3-{6-(2-cyclobutylpyrrolidin-1-yl)-7-[(trans-4-methylcyclohexyl)methyl]-8-[(3R)-3-phenylmorpholin-4-yl]-7H -purin-2-yl}-1,2,4-oxadiazol-5(4H)-one], the IC50 worked out at 7.84 nM.
With `Cc1nonc1CN(C)c1nc2nc(-c3noc(=O)[nH]3)nc(N[C@H](C)C3CCC3)c2n1C[C@H]1CC[C@H](C)CC1` [Example 11.63, 3-(6-{[(1R)-1-cyclobutylethyl]amino}-7-[(trans-4-methylcyclohexyl)methyl]-8-{methyl[(4-methyl-1,2,5-oxadiazol-3-yl)methyl]amino}-7H-purin-2-yl)-1,2,4-oxadiazol-5(4H)-one] the figure was 3.71 nM; with `C[C@@H](Nc1nc(-c2noc(=O)[nH]2)nc2nc(N(C)Cc3ccon3)n(C[C@H]3CC[C@H](C)CC3)c12)C1CCC1` [Example 11.64, 3-(6-{[(1R)-1-cyclobutylethyl]amino}-8-[(isoxazol-3-ylmethyl)(methyl)amino]-7-[(trans-4-methylcyclohexyl)methyl]-7H-purin-2-yl)-1,2,4-oxadiazol-5(4H)-one], 5.77 nM.
`C[C@@H]1COCCN1c1nc2nc(-c3noc(=O)[nH]3)nc(N[C@H](C)C3CCC3)c2n1C[C@H]1CC[C@H](C)CC1` [Example 11.65, 3-(6-{[(1R)-1-cyclobutylethyl]amino}-7-[(trans-4-methylcyclohexyl)methyl]-8-[(3R)-3-methylmorpholin-4-yl]-7H-purin-2-yl)-1,2,4-oxadiazol-5(4H)-one]: the concentration for half-maximal inhibition (IC50) turned out to be 1.45 nM.
With `C[C@@H](Nc1nc(-c2noc(=O)[nH]2)nc2nc(N3CCOC[C@@H]3C)n(C[C@H]3CC[C@H](C)CC3)c12)C1CCC1` [Example 11.66, 3-(6-{[(1R)-1-cyclobutylethyl]amino}-7-[(trans-4-methylcyclohexyl)methyl]-8-[(3S)-3-methylmorpholin-4-yl]-7H-purin-2-yl)-1,2,4-oxadiazol-5(4H)-one] the figure was 5.8 nM; with `C[C@@H](Nc1nc(-c2noc(=O)[nH]2)nc2nc(N3CCOC[C@@H]3c3ccccc3)n(C[C@H]3CC[C@H](C)CC3)c12)C1CCC1` [Example 11.67, 3-(6-{[(1R)-1-cyclobutylethyl]amino}-7-[(trans-4-methylcyclohexyl)methyl]-8-[(3S)-3-phenylmorpholin-4-yl]-7H-purin-2-yl)-1,2,4-oxadiazol-5(4H)-one], 10.8 nM; with `C[C@@H](Nc1nc(-c2noc(=O)[nH]2)nc2nc(N(C)Cc3ccncn3)n(C[C@H]3CC[C@H](C)CC3)c12)C1CCC1` [Example 11.70, 3-(6-{[(1R)-1-cyclobutylethyl]amino}-7-[(trans-4-methylcyclohexyl)methyl]-8-[methyl(pyrimidin-4-ylmethyl)amino]-7H-purin-2-yl)-1,2,4-oxadiazol-5(2H)-one], 22.8 nM.
Turning to `C[C@@H](Nc1nc(-c2noc(=O)[nH]2)nc2nc(N(C)Cc3cnn(C)c3)n(C[C@H]3CC[C@H](C)CC3)c12)C1CCC1` [Example 11.71, 3-(6-{[(1R)-1-cyclobutylethyl]amino}-7-[(trans-4-methylcyclohexyl)methyl]-8-{methyl[(1-methyl-1H-pyrazol-4-yl)methyl]amino}-7H-purin-2-yl)-1,2,4-oxadiazol-5(2H)-one], the IC50 was found to be 24.3 nM.
To `C[C@@H](Nc1nc(-c2noc(=O)[nH]2)nc2nc(N(C)Cc3cnccn3)n(C[C@H]3CC[C@H](C)CC3)c12)C1CCC1` [Example 11.72, 3-(6-{[(1R)-1-cyclobutylethyl]amino}-7-[(trans-4-methylcyclohexyl)methyl]-8-[methyl(pyrazin-2-ylmethyl)amino]-7H-purin-2-yl)-1,2,4-oxadiazol-5(2H)-one] belongs 5.98 nM.
`C[C@@H](Nc1nc(-c2noc(=O)[nH]2)nc2nc(N(C)Cc3cncs3)n(C[C@H]3CC[C@H](C)CC3)c12)C1CCC1` [Example 11.73, 3-(6-{[(1R)-1-cyclobutylethyl]amino}-7-[(trans-4-methylcyclohexyl)methyl]-8-[methyl(1,3-thiazol-5-ylmethyl)amino]-7H-purin-2-yl)-1,2,4-oxadiazol-5(2H)-one]: the IC50 came out at 11.5 nM.
With `C[C@@H](Nc1nc(-c2noc(=O)[nH]2)nc2nc(N(C)Cc3cscn3)n(C[C@H]3CC[C@H](C)CC3)c12)C1CCC1` [Example 11.74, 3-(6-{[(1R)-1-cyclobutylethyl]amino}-7-[(trans-4-methylcyclohexyl)methyl]-8-[methyl(1,3-thiazol-4-ylmethyl)amino]-7H-purin-2-yl)-1,2,4-oxadiazol-5(2H)-one] the figure was 133 nM; with `C[C@@H](Nc1nc(-c2noc(=O)[nH]2)nc2nc(N(C)Cc3noc(C4CC4)n3)n(C[C@H]3CC[C@H](C)CC3)c12)C1CCC1` [Example 11.75, 3-(6-{[(1R)-1-cyclobutylethyl]amino}-8-{[(5-cyclopropyl-1,2,4-oxadiazol-3-yl)methyl](methyl)amino}-7-[(trans-4-methylcyclohexyl)methyl]-7H-purin-2-yl)-1,2,4-oxadiazol-5(2H)-one], 9.58 nM.
As to `Cc1csc(CN(C)c2nc3nc(-c4noc(=O)[nH]4)nc(N[C@H](C)C4CCC4)c3n2C[C@H]2CC[C@H](C)CC2)n1` [Example 11.76, 3-(6-{[(1R)-1-cyclobutylethyl]amino}-7-[(trans-4-methylcyclohexyl)methyl]-8-{methyl[(4-methyl-1,3-thiazol-2-yl)methyl]amino}-7H-purin-2-yl)-1,2,4-oxadiazol-5(2H)-one], the IC50 is 8.19 nM.
Turning to `Cc1ccc(C2CCCCN2c2nc3nc(-c4noc(=O)[nH]4)nc(N[C@H](C)C4CCC4)c3n2C[C@H]2CC[C@H](C)CC2)o1` (stereo partly drawn) [Example 11.78, 3-(6-{[(1R)-1-cyclobutylethyl]amino}-7-[(trans-4-methylcyclohexyl)methyl]-8-[2-(5-methylfuran-2-yl)piperidin-1-yl]-7H-purin-2-yl)-1,2,4-oxadiazol-5(4H)-one], the IC50 is 37.1 nM.
To `C[C@@H](Nc1nc(-c2noc(=O)[nH]2)nc2nc(N3CCS(=O)(=O)CC3)n(C[C@H]3CC[C@H](C)CC3)c12)C1CCC1` [Example 11.79, 3-(6-{[(1R)-1-cyclobutylethyl]amino}-8-(1,1-dioxidothiomorpholin-4-yl)-7-[(trans-4-methylcyclohexyl)methyl]-7H-purin-2-yl)-1,2,4-oxadiazol-5(2H)-one] belongs 33.3 nM; to `C[C@@H](Nc1nc(-c2noc(=O)[nH]2)nc2nc(N3CCC(F)(F)CC3)n(C[C@H]3CC[C@H](C)CC3)c12)C1CCC1` [Example 11.80, 3-(6-{[(1R)-1-cyclobutylethyl]amino}-8-(4,4-difluoropiperidin-1-yl)-7-[(trans-4-methylcyclohexyl)methyl]-7H-purin-2-yl)-1,2,4-oxadiazol-5(2H)-one], 25.9 nM.
